Reference: PMC11077050 (2024)

Columns and labels:
[1] = system: RNA 4 (RNA, riboswitch) CCCUGAUAGCUUGUCCUUUAAUGGUCCUAUCUGGAAAAUG; experiment: native ESI MS with CAD top-down MS (FT-ICR); conditions: NH4+ 50 mM (ammonium bicarbonate), no divalent ions; 9:1 H2O/CH3OH, 0.25 mM piperazine, pH ~7.5; 1 μM RNA, 1-5 μM neomycin B
[2] = system: RNA 5 (RNA, riboswitch) CCGGCAUAGCUUCUCCUUUAAUGGUCCUAUGUCGAAAAUG; experiment: native ESI MS with CAD top-down MS (Orbitrap); conditions: motif C occupancy reduced to ~60% in 1:3 complexes
[3] = system: RNA 3 (RNA, riboswitch) CCGUCAUAGCUUGUCCUUUAAUGGUCCUAUGACGAAAAUG; experiment: native ESI MS with CAD top-down MS (FT-ICR); conditions: NH4+ 50 mM (ammonium bicarbonate), no divalent ions; 9:1 H2O/CH3OH, 0.25 mM piperazine, pH ~7.5; 1 μM RNA, 1-5 μM neomycin B
[4] = system: RNA 2 (RNA, riboswitch) CCGGCAUAGCUUGUCCUUUAAUGGUCCUAUGUCGAAAAUG; experiment: native ESI MS with CAD top-down MS (FT-ICR); conditions: NH4+ 50 mM (ammonium bicarbonate), no divalent ions; 9:1 H2O/CH3OH, 0.25 mM piperazine, pH ~7.5; 1 μM RNA, 1-5 μM neomycin B; fourth molecule unspecific
[5] = system: 15N-labeled RNA 2 (RNA, riboswitch) CCGGCAUAGCUUGUCCUUUAAUGGUCCUAUGUCGAAAAUG; experiment: 1H NMR imino proton titration; conditions: Na+ (25 mM NaCl, 15 mM sodium phosphate); pH 6.5, 15 °C, 10% D2O, 280 μM RNA, 0-4.5 equivalents; slow exchange in 0-1 equivalent range

Measured: binding

NC[C@@H]1O[C@H](O[C@H]2[C@@H](O)[C@H](O[C@@H]3[C@@H](O)[C@H](N)C[C@H](N)[C@H]3O[C@H]3O[C@H](CN)[C@@H](O)[C@H](O)[C@H]3N)O[C@@H]2CO)[C@H](N)[C@@H](O)[C@@H]1O
yes: [1] | [2] | [3] | [4] | [5]
